Test results published in ChEMBL document CHEMBL4418499, “Inhibitors of trim33 and methods of use” (2018).

How the values were obtained:
[1] = biological target: T1, E3 ubiquitin-protein ligase TRIM33 (Homo sapiens, UniProt Q9UPN9); experiment: Inhibition of recombinant TRIM33 PHD bromodomain (unknown origin) using biotinylated H3 peptide (H3K9me3K18ac) by AlphaScreen assay
T1 sequence (Q9UPN9 whole entry): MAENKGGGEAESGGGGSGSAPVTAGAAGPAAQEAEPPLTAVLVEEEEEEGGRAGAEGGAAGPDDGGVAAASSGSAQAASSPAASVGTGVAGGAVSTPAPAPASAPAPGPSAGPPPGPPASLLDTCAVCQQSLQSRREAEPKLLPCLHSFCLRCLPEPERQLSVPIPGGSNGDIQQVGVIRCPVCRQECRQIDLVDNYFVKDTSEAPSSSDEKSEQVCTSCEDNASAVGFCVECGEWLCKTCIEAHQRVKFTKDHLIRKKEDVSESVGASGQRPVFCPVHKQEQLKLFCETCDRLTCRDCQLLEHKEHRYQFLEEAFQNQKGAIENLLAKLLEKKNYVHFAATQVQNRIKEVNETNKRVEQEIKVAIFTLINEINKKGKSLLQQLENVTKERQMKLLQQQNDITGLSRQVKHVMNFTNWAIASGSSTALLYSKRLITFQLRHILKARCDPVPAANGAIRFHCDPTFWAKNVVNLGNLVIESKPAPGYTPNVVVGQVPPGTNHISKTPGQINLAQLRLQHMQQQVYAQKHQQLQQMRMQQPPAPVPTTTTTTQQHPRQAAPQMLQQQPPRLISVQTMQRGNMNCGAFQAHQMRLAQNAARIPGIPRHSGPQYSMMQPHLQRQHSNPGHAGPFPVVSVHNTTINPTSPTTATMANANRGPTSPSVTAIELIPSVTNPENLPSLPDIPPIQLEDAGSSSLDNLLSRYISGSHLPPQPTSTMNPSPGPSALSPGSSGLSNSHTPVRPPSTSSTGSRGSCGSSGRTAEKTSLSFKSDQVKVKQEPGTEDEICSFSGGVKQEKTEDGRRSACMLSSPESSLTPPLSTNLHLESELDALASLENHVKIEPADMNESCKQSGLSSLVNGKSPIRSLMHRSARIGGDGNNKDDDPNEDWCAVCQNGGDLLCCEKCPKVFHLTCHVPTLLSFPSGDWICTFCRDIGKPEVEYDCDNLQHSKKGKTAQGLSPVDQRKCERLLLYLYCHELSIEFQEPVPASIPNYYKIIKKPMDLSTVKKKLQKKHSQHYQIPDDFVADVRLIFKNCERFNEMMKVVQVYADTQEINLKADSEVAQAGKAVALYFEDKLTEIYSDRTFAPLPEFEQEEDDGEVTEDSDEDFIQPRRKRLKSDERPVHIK

[2] = biological target: T2, Transcription intermediary factor 1-alpha (Homo sapiens, UniProt O15164); experiment: Inhibition of recombinant TRIM24 (unknown origin) using biotinylated H3 peptide (H3K9me3K18ac) by AlphaScreen assay
T2 sequence (O15164 whole entry): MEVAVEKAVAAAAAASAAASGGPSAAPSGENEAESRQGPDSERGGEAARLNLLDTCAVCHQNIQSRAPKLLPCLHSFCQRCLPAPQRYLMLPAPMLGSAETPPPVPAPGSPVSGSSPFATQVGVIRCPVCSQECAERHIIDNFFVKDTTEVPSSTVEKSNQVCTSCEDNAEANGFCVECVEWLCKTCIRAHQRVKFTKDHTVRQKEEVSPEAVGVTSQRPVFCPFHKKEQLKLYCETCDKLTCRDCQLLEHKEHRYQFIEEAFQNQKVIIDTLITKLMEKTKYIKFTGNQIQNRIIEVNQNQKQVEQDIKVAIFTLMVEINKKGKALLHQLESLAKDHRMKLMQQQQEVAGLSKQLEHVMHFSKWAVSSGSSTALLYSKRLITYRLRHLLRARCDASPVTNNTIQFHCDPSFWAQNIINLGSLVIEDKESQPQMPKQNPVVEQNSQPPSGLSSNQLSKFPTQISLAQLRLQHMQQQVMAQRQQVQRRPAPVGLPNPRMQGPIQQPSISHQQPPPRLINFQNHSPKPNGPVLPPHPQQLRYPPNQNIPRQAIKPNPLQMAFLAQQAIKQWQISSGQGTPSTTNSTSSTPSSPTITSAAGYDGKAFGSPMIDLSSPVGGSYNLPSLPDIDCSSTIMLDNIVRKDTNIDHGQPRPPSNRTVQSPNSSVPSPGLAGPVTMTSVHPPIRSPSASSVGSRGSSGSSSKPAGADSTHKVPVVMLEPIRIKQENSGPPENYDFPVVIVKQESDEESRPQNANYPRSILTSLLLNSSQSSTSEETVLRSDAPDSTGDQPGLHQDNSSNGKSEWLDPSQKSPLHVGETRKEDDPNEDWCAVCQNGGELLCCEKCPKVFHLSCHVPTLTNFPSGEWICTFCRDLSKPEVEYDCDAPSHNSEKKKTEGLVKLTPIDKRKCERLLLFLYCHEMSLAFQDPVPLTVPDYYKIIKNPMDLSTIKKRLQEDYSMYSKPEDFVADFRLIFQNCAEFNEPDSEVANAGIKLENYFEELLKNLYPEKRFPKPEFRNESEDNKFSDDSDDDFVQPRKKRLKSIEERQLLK

[3] = species: Homo sapiens; experiment: Selectivity index, ratio of IC50 for recombinant TRIM24 (unknown origin) to IC50 for recombinant TRIM33 PHD bromodomain (unknown origin)

Row | Structure (SMILES) | IC50 [1] [µM] | IC50 [2] [µM] | Ratio IC50 [3]
1 | COc1cc(C=O)ccc1O [VANILLIN] | 0.326 | 0.162 | 
2 | CCCOc1ccn2c(C(C)=O)cc(-c3nc4ccccn4c3NCc3ccc(C#N)cc3)c2c1 | 46.3 |  | 
3 | COc1ccc(CCNc2c(-c3ccc4nccn4c3)nc3ccc(Br)cn23)cc1OC | 20.4 | 283 | 13.9
4 | CCCOc1ccn2c(C(C)=O)cc(-c3nc4cnccn4c3Nc3ccc(OC)cc3)c2c1 | 38.5 | 226 | 5.87
5 | CCCOc1ccn2c(C(C)=O)cc(-c3nc4ccc(C(=O)OC)cn4c3NCCc3ccc(OC)c(OC)c3)c2c1 |  | 5650 | 
6 | Cc1[nH]cnc1-c1nc2ccc(Br)cn2c1NCc1ccc(C#N)cc1 | 10.1 | 29.3 | 2.91
7 | CCCOc1ccn2c(C(C)=O)cc(-c3nc4ccccn4c3NCCc3ccc(OC)c(OC)c3)c2c1 | 21.7 | 372 | 17.1
8 | Cc1[nH]cnc1-c1nc2ccccn2c1NCc1ccc(C#N)cc1 | 16.4 | 42.8 | 2.61
9 | COCCNc1c(-c2nc[nH]c2C)nc2ccccn12 | 16.3 | 35.4 | 2.17
10 | O=C1CCCC1 [CYCLOPENTANONE] | 0.234 | 0.136 | 
11 | CCCOc1ccn2c(C(C)=O)cc(-c3nc4cnccn4c3NCCOC)c2c1 |  | 2850 | 
12 | Cn1cccc1C=O | 0.305 | 0.18 | 
13 | O=Cc1cccc(-c2ccc(C(=O)O)cc2)c1 | 0.336 | 0.165 | 
14 | O=C1CCCCCCC1 [CYCLOOCTANONE] | 0.25 | 0.166 | 
15 | COCCNc1c(-c2nc[nH]c2C)nc2cnccn12 | 204 |  | 115
16 | O=Cc1ccccc1O | 0.299 | 0.221 | 
17 | O=Cc1ccc(N2CCCC2)cc1 | 0.269 | 0.133 | 
18 | COc1ccc(C=O)c(O)c1 | 0.301 | 0.22 | 
19 | COc1ccc(CCNc2c(-c3ccc4nccn4c3)nc3cnccn23)cc1OC | 29.7 |  | 1.9
20 | Cc1[nH]cnc1-c1nc2ccccn2c1NCCN1CCOCC1 |  |  | 13.3
21 | Brc1ccc2nc(-c3ccc4nccn4c3)c(NCCN3CCOCC3)n2c1 |  | 1380 | 
22 | Cc1ncc(CO)c(C=O)c1O | 0.283 | 0.225 | 
23 | O=Cc1cccnc1Br | 5.48 | 7.86 | 
24 | COc1ccc(CCNc2c(-c3ccc4nccn4c3)nc3ccccn23)cc1OC |  | 1510 | 
25 | Cc1cccc2c(C=O)c[nH]c12 | 0.24 | 0.157 | 
26 | c1ccn2c(NCCN3CCOCC3)c(-c3ccc4nccn4c3)nc2c1 | 366 |  | 48.4
27 | COc1ccc(CCNc2c(-c3nc[nH]c3C)nc3ccc(Br)cn23)cc1OC |  | 28.9 | 

Now from value to compound:

Row | IC50 [1] [µM] | IC50 [2] [µM] | Ratio IC50 [3] | Structure (SMILES)
28 | 0.00319 | 1.71 | 538 | COc1ccc(Nc2c(-c3c[nH]c(C)n3)nc3ccccn23)cc1
29 | 5.9 | 96.5 | 16.4 | Cc1nc(-c2nc3ccccn3c2NC2CCCCC2)c[nH]1
30 | 169 | 320 |  | c1cn2c(NC3CCCCC3)c(-c3ccc4nccn4c3)nc2cn1
31 | 1.07 | 9.03 |  | Cc1nc[nH]c1-c1nc2ccccn2c1NC1CCCCC1
32 |  |  | 8.45 | Cc1[nH]cnc1-c1nc2ccccn2c1NC1CCCCC1
33 | 1.03 | 8.48 | 8.27 | Cc1[nH]cnc1-c1nc2ccc(Br)cn2c1NC1CCCCC1
34 |  | 44.4 |  | COc1ccc(CCNc2c(-c3c[nH]c(C)n3)nc3ccccn23)cc1OC
35 | 27.8 | 242 | 8.73 | Cc1nc(-c2nc3ccccn3c2NCCN2CCOCC2)c[nH]1
36 | 10.5 to 56.9 | 4.07 |  | COCCNc1c(-c2c[nH]c(C)n2)nc2ccc(C(=O)OC)cn12
37 | 26.8 | 267 | 9.97 | Cc1nc(-c2nc3ccccn3c2NCc2ccc(C#N)cc2)c[nH]1
38 | 7.17 | 622 | 86.8 | COC(=O)c1ccc2nc(-c3c[nH]c(C)n3)c(NCCc3ccc(OC)c(OC)c3)n2c1
39 |  | 511 |  | COCCNc1c(-c2nc[nH]c2C)nc2ccc(C(=O)OC)cn12
40 | 18.9 | 180 | 9.48 | COC(=O)c1ccc2nc(-c3c[nH]c(C)n3)c(NC3CCCCC3)n2c1
41 |  |  | 189 | COc1ccc(Nc2c(-c3nc[nH]c3C)nc3ccc(Br)cn23)cc1
42 | 13.8 | 249 | 18.1 | c1ccn2c(NC3CCCCC3)c(-c3ccc4nccn4c3)nc2c1
43 |  | 143 |  | COC(=O)c1ccc2nc(-c3nc[nH]c3C)c(NC3CCCCC3)n2c1
44 | 650 |  |  | COC(=O)c1ccc2nc(-c3c[nH]c(C)n3)c(NCc3ccc(C#N)cc3)n2c1
45 | 80 |  |  | CCCOc1ccn2c(C(C)=O)cc(-c3nc4cnccn4c3NC3CCCCC3)c2c1

Row | IC50 [1] [µM] | IC50 [2] [µM] | Ratio IC50 [3] | Structure (SMILES)
46 |  | 63.5 |  | COc1ccc(CCNc2c(-c3c[nH]c(C)n3)nc3ccc(Br)cn23)cc1OC
47 | 303 | 700 |  | COC(=O)c1ccc2nc(-c3ccc4nccn4c3)c(NCCN3CCOCC3)n2c1
48 | 415 | 186 |  | Cc1nc(-c2nc3cnccn3c2NC2CCCCC2)c[nH]1
49 |  | 255 |  | CCCOc1ccn2c(C(C)=O)cc(-c3nc4ccc(C(=O)OC)cn4c3NC3CCCCC3)c2c1
50 |  | 134 |  | COCCNc1c(-c2nc[nH]c2C)nc2ccc(Br)cn12
51 |  | 100 |  | Brc1ccc2nc(-c3ccc4nccn4c3)c(NC3CCCCC3)n2c1
52 |  | 377 |  | COC(=O)c1ccc2nc(-c3nc[nH]c3C)c(NCCc3ccc(OC)c(OC)c3)n2c1
53 |  | 2880 |  | CCCOc1ccn2c(C(C)=O)cc(-c3nc4ccc(C(=O)OC)cn4c3NCCOC)c2c1
54 | 153 | 385 |  | COc1ccc(Nc2c(-c3c[nH]c(C)n3)nc3cnccn23)cc1
55 | 125 |  | 486 | COC(=O)c1ccc2nc(-c3ccc4nccn4c3)c(NCc3ccc(C#N)cc3)n2c1
56 |  |  | 5.35 | COc1ccc(Nc2c(-c3nc[nH]c3C)nc3ccccn23)cc1
57 | 65.1 |  | 515 | CCCOc1ccn2c(C(C)=O)cc(-c3nc4ccc(C(=O)OC)cn4c3NCc3ccc(C#N)cc3)c2c1
58 |  |  | 11.8 | COC(=O)c1ccc2nc(-c3nc[nH]c3C)c(NCCN3CCOCC3)n2c1
59 | 0.0137 | 2.59 |  | COc1ccc(Nc2c(-c3[nH]cnc3C)nc3ccc(Br)cn23)cc1
60 | 42.6 | 502 |  | COC(=O)c1ccc2nc(-c3ccc4nccn4c3)c(NC3CCCCC3)n2c1
61 |  | 117 |  | Cc1[nH]cnc1-c1nc2ccc(Br)cn2c1NCCN1CCOCC1
62 |  | 90.1 |  | Cc1nc[nH]c1-c1nc2cnccn2c1NC1CCCCC1
